One compound from EPA's ToxValDB 9.5 (doi:10.2903/j.efsa.2006.58r) can be followed below.

The test system of data set [1] is Apis mellifera. As to conditions: acute, mortality.
Data set [2] has as its system Oncorhynchus mykiss. Particulars: acute; duration: 96 hours; mortality.
Data set [3] deals with Plant. Particulars: not reported; no effects.
For data set [4], the system named is Rattus norvegicus.
Data set [5] concerns Pimephales promelas. Particulars: chronic/long-term; duration: 32 days.
Data set [6] concerns Bibionidae. Particulars: chronic/long-term; duration: 40 days.
For data set [7], the system named is Anas platyrhynchos. Particulars: acute; oral; unspecified; mortality.
In data set [8] the test system is Daphnia magna. As to conditions: chronic/long-term; duration: 21 days.
In data set [9] the test system is Pontoscolex corethrurus. As to conditions: for NOEC: chronic/long-term.
In data set [10] the test system is Colinus virginianus.
Data set [11] relates to Typhlodromus pyri. The data set can be described thus: LR50; higher = less toxic. As to conditions: not reported; mortality.
Data set [12] relates to Aphidius rhopalosiphi. Put plainly: LR50; higher = less toxic. As to conditions: not reported; mortality.

Take `COc1cc(C)c(C(=O)c2c(OC)ccc(Br)c2C)c(OC)c1OC` [Metrafenone]: the LD50 in [1] (dermal) was greater than 100 µg/piece; in data set [1] (oral, unspecified), greater than 114 µg/piece; in data set [4] (acute, oral, mortality), greater than 5000 mg/kg-day; in data set [7], greater than 2020 mg/kg-day. Also, the LC50 in data set [2] is greater than 0.82 µg/mL; in data set [9] (acute, mortality) it was greater than 250 mg/kg. Also, the LEL in data set [3] came out at 300 g/ha. Besides, the NOAEL in [4] (chronic, duration: 2 years, oral, histopathology: neoplastic) amounted to 25 mg/kg-day; in data set [4] (reproduction developmental) it was 811 mg/kg-day; in [4] (subchronic, duration: 13 weeks, oral, organ weight), 43 mg/kg-day. Further, the NOEC in data set [5] was 0.228 mg/L; in [6] it was 1 mg/L; in [8] it was 0.225 mg/L; in data set [9] it was 10.4 mg/kg; in data set [9] (reproduction) it was 3 mg/kg; in data set [10] (reproduction developmental), 125 mg/kg-day. In [10] (short-term, oral, diet), this compound showed an NOEC greater than 948 mg/kg-day. Besides, the LR50 in data set [11] was greater than 500 g/ha; in [12], greater than 300 g/ha.

The term NOAEL denotes the highest dose or exposure tested at which no adverse effect was seen.
